Measurements published in paper PMC7703542 (Proceedings of the National Academy of Sciences of the …, 2020).

Molecular target: PdF1 γCC (PdF1) (Paracoccus denitrificans, UniProt A1B8N8+A1B8P0)
Assay: single-molecule rotation assay, Mg-ADP inhibited pauses
Assay type: biochemical
Conditions: 1 µM ADP with 1 µM ATP, no ADP-trapping system, 0.1% LDAO

Chain of PdF1 γCC (PdF1) (A1B8P0 whole entry): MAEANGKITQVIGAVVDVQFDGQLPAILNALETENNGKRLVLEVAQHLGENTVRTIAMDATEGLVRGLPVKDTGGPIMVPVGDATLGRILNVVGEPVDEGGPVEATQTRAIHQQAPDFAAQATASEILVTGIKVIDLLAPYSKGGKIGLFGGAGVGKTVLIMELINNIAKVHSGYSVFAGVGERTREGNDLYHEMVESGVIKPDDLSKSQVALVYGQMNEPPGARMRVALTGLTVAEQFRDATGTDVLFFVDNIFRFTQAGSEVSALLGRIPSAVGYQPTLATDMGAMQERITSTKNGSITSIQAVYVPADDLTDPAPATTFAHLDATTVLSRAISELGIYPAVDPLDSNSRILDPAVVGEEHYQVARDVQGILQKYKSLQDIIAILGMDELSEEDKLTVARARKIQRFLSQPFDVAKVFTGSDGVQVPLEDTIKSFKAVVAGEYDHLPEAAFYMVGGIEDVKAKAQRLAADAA
Chain of PdF1 γCC (PdF1) (A1B8N8 whole entry): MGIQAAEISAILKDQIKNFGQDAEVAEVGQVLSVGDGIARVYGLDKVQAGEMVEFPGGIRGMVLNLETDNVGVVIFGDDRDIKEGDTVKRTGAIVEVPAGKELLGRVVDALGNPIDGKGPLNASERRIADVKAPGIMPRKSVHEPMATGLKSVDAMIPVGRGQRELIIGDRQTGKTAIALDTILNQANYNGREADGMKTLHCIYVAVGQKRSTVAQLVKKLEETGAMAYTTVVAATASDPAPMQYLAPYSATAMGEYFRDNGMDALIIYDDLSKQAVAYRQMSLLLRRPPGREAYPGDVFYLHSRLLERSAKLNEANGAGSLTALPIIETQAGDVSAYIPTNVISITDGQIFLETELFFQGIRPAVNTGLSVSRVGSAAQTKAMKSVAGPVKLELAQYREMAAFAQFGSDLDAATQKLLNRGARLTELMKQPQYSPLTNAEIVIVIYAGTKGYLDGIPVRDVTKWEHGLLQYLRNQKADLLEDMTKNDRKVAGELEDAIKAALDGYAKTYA
Chain of PdF1 γCC (PdF1) (A1B8N9 whole entry Q115C/D214C partner): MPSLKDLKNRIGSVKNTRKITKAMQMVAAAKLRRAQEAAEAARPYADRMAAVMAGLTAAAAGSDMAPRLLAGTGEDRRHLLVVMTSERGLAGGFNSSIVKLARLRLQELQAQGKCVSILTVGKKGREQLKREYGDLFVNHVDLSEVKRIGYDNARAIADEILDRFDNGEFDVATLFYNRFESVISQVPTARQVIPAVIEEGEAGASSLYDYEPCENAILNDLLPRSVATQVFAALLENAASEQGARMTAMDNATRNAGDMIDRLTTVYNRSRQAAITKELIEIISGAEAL
Chain of PdF1 γCC (PdF1) (A1B8N7 whole entry partner): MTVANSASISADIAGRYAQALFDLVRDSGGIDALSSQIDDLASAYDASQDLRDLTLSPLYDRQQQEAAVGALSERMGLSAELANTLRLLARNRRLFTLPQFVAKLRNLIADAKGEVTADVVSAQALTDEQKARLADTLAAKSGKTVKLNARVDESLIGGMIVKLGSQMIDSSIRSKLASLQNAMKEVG
Chain of PdF1 γCC (PdF1) (A1B8P1 whole entry partner): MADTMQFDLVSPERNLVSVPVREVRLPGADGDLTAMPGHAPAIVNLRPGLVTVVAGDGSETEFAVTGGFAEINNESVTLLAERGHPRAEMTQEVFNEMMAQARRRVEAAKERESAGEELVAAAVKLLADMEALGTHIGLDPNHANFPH

## Nc1ncnc2c1ncn2[C@@H]1O[C@H](COP(=O)(O)OP(=O)(O)O)[C@@H](O)[C@H]1O [ADP]
  single-molecule rotation assay, Mg-ADP inhibited pauses: supporting the conclusion that they are a result of Mg-ADP inhibition
